Experimental data: the NIST ThermoML archive (doi:10.1021/je8008649)

Test: mn = molality of the nth substance listed, in mol/kg
Details: 101 kPa, Liquid

N.N.O=S(=O)(O)O [ammonium sulfate] + O
m1 = 4.655
Details	mass density [kg/m3]	viscosity [mPa·s]
293.15 K	1217.66	–
298.15 K	1215.79	2.114
303.15 K	1213.89	1.944
308.15 K	1211.94	1.785
313.15 K	1209.97	–

NO.O=S(=O)(O)O [hydroxylammonium hydrogen sulfate] + O
Details	mass density, 283.15 K [kg/m3]	mass density, 288.15 K [kg/m3]	mass density, 293.15 K [kg/m3]	mass density, 298.15 K [kg/m3]	mass density, 303.15 K [kg/m3]	mass density, 308.15 K [kg/m3]	mass density, 313.15 K [kg/m3]	viscosity, 298.15 K [mPa·s]	viscosity, 303.15 K [mPa·s]	viscosity, 308.15 K [mPa·s]
m1 = 0.0075	1000.57	999.95	999.03	997.89	996.46	994.84	993	–	–	–
m1 = 0.0204	–	–	–	–	–	–	–	0.897	0.806	0.727
m1 = 0.038	1003.84	1003.18	1002.23	1001.03	999.59	997.95	996.09	–	–	–
m1 = 0.0473	–	–	–	–	–	–	–	0.909	0.814	0.736
m1 = 0.0702	1007.27	1006.56	1005.58	1004.34	1002.88	1001.17	999.12	0.914	0.821	0.741
m1 = 0.2199	1022.47	1021.57	1020.43	1019.05	1017.48	1015.7	1013.04	–	–	–
m1 = 0.2315	–	–	–	–	–	–	–	0.968	0.869	0.787
m1 = 0.3709	1036.87	1035.81	1034.52	1033.05	1031.38	1029.51	1027.24	1.019	0.912	0.823
m1 = 0.4314	1042.64	1041.22	1039.97	1038.36	1036.73	1034.77	1032.85	1.035	0.927	0.838
m1 = 0.5334	1051.59	1050.39	1048.98	1047.39	1045.61	1043.69	1041.6	1.069	0.961	0.867
m1 = 0.8069	1075.32	1073.9	1071.96	1070.2	1068.3	1066.3	1064.15	1.167	1.053	0.95
m1 = 0.9684	1088.31	1086.8	1085.12	1083.29	1081.32	1079.23	1076.98	–	–	–
m1 = 1.044	–	–	–	–	–	–	–	1.256	1.128	1.02
m1 = 1.165	1103.23	1101.58	1099.81	1097.89	1095.85	1093.7	1091.42	–	–	–
m1 = 1.324	–	–	–	–	–	–	–	1.369	1.237	1.112
m1 = 1.478	1126.68	1124.91	1123	1120.96	1118.82	1116.5	1113.63	–	–	–
m1 = 1.589	–	–	–	–	–	–	–	1.483	1.333	1.201
m1 = 1.851	1151.94	1149.99	1147.92	1145.49	1142.34	1141.16	1138.36	–	–	–
m1 = 1.915	–	–	–	–	–	–	–	1.631	1.463	1.319
m1 = 2.088	–	–	–	–	–	–	–	1.732	1.542	1.386
m1 = 2.461	1188.98	1186.87	1184.69	1182.41	1180.07	1177.64	1175.14	–	–	–
m1 = 2.847	–	–	–	–	–	–	–	2.123	1.887	1.702
m1 = 2.998	1218.05	1215.84	1213.55	1211.21	1208.79	1206.32	1203.99	–	–	–
